From patent US20240091169A1, “POL[…] FOR TREATING INFLAMMATORY DISEASES” (UNIVERSITY OF SOUTH CAROLINA, priority 2022, published 2024)

How the values were obtained:
AOM/DSS-induced CRC = assay: AOM/DSS mouse model of colorectal cancer (CRC); assay type: in vivo, C57BL/6 mice
C26 CRC cells = assay: CCK-8 cell viability of C26 CRC cells; assay type: cell-based; details: 24 hr, read-out: IC50, anti-proliferative activity against C26 CRC cells
Method: BMDMs were isolated as described above. On day 6 of maturation, BMDMs were subjected to 7 concentrations of PA to assess cell death: 0.001, 0.01, 0.1, 1.0, 5.0, 10.0, and 100.0 μM. On day 7 (i.e., 24 hr-post PA treatment), CCK-8 (Dojindo; Cat #CK04) assays were completed per manufacturer's instructions. C26 CRC cells were also subjected to these 7 concentrations of PA for 24 hr to assess cell death using CCK-8. Three independent experiments were carried out.

[1] = tested on: DSS-induced acute colitis; assay: DSS mouse model, Experiment 2: acute colitis; assay type: in vivo, C57BL/6 female mice
Method: Experiment 2—Acute Colitis: 14-week-old C57BL/6 female mice were given 1 cycle of 2% DSS in drinking water for 7 days, immediately followed by 7 days of regular drinking water. Either vehicle or panaxynol was administered 3×/week beginning on the day prior to the first DSS cycle (day −1) until study completion (FIG. 10A). To ensure the induction of colitis and to quantify disease states, colitis symptoms were monitored every other day using the same DAI as above. Mice were euthanized on day 14—one day after the last dose of panaxynol was given. Colons were placed in the appropriate buffers for further analysis. Data presented in FIGS. 10-14 (i.e., histology, immunofluorescence, electron microscopy, and flow cytometry) was obtained using colonic tissue from 2 cohorts of Experiment 2—Acute Colitis.
Panaxynol (PA; C17H24O) was purchased from Biopurify Pytochemicals Ltd in sealed 5 mg/mL vials in pure 95% ethanol and stored at −20° C. PA was prepared fresh on the day of treatment by diluting in H2O to 1 mg/mL for administration (p.o.) at a dosage of 2.5 mg/kg. This dosage was chosen following a pilot dose-response study to determine PA's efficacy. […]
All mice underwent the same symptom monitoring and scoring. […] Symptom scores were calculated by scoring percent body weight loss, stool consistency, and rectal bleeding as previously described. Briefly, fresh colonic evacuates were smeared onto “Hemoccult” tape (Beckman Coulter) to assess severity of diarrhea and were tested with developer (Beckman Coulter) to assess rectal bleeding. Stool consistency was scored as follows: solid cylinder (0), soft cylinder and easily spreadable (2), and noncylindrical or runny (4). Bleeding was scored as follows: no positive detection of blood (0), detection of blood but not grossly visible (2), and gross visibility of blood (4). Body weight was calculated as percent bodyweight loss: 0%-5% (0), 6%-10% (1), 11%-15% (2), 15%-20% (3), 20%-25% (4), and >25% (5). Scores of all three categories were summed to obtain an overall symptom score for each mouse.
Prior to euthanasia, colonoscopies were performed (n=3/group) to visualize the colonic tissue and quantify the severity of disease (colitis and colorectal tumors) using an established protocol. Briefly, mice were anesthetized with isoflurane to perform a detailed endoscopic examination in which the endoscope was gently inserted into the rectum and through the anus. Air was applied to slowly set apart the intestinal walls for examination. As the scope advanced, pictures were taken frequently and the following were meticulously assessed and scored by the blinded primary investigator using the well-established scoring system to integrate evaluation of intestinal inflammation (i.e., focal lesions (edematous areas of mucosa, erosions/reddened areas, ulcers), perianal region findings (diarrhea, bloody anal discharge, or prolapse), transparency of the colonic wall (visualization of the intramural blood vessels), and presence of intestinal bleeding) and tumors. Scoring was performed as previously described with no modifications. Upon completion of colonoscopies, mice were placed on a warm pad set at 37° C. for 5 min.
Lamina propria (LP) cells were isolated from colons to be used for flow cytometry to identify immune cell populations within the colonic LP. Colons were rinsed in sterile ice-cold PBS and minced with scissors. Tissues were subjected to a cell dissociation solution (HBSS without Ca^2+Mg^2+ containing 5 mM EDTA and 1 mM DTT) in a shaking incubator for 30 min at 37° C. Tubes containing dissociated tissues were vortexed and passed through a 100 μm cell strainer; flow through containing intestinal epithelial cells (IECs) was discarded. Remaining tissue was subjected to a cell digestion buffer (HBSS with Ca^2+Mg^2+ containing 5% FBS, 5 mg/mL Collagenase D, 50 μg/mL DNase 1, and 1 U/mL Dispase) in a shaking incubator for 30 min at 37° C. Tubes were vortexed and passed through a 40 μm cell strainer. […]

[2] = females, males, and sexes combined, vs VEH, p≤0.05
[3] = proximal colon (tumors intact) RT-qPCR, vs VEH, p≤0.05
[4] = proximal colon RT-qPCR, vs VEH, p≤0.05
[5] = proximal colon qRT-PCR, vs VEH, p≤0.05
[6] = removed tumors RT-PCR, vs VEH, p≤0.05

C=CC(O)C#CC#CC/C=C\CCCCCCC (stereo in doubt) [PA, 3(R)-(9Z)-heptadeca-1,9-dien-4,6-diyn-3-ol]
survival (AOM/DSS-induced CRC; 2.5 mg/kg p.o. 3x/week, 12 weeks, vs AOM/DSS+VEH, FIG. 1B): appears to improve survival, although non-significant | goblet cells per crypt (AOM/DSS-induced CRC; Alcian Blue, distal colon, no difference between CF and PA): completely rescued | Foxp3 gene expression in tumors (AOM/DSS-induced CRC; RT-qPCR, vs VEH, p≤0.05): decrease | colonoscopy score: focal lesions (AOM/DSS-induced CRC; after 12 weeks, vs VEH): no significant difference | colonoscopy score: perianal findings (AOM/DSS-induced CRC; after 12 weeks, vs VEH, p=0.08): no significant difference | colonoscopy score: inflammation (AOM/DSS-induced CRC; after 12 weeks, vs VEH, p≤0.05): significant reductions | colonoscopy score: intestinal bleeding (AOM/DSS-induced CRC; after 12 weeks, vs VEH, p≤0.05): significant reductions | colonoscopy score: transparency of the colonic wall (AOM/DSS-induced CRC; after 12 weeks, vs VEH, p≤0.05): significant reduction (i.e., improvement) | colonoscopy tumor score (AOM/DSS-induced CRC; after 12 weeks, vs VEH, p≤0.05): significantly reduced | abundance of CD11b+CD68+ macrophages in colonic lamina propria (AOM/DSS-induced CRC; colons with tumors intact, flow cytometry, vs VEH, p≤0.05): significantly decreased | submucosal invasion and destruction of the crypts (H&E) (AOM/DSS-induced CRC; distal colon, vs VEH): did not appear as severe | large tumors (>2 mm) (AOM/DSS-induced CRC; females and sexes combined, vs VEH, p≤0.05): significant reduction | number of medium sized tumors (1-2 mm) (AOM/DSS-induced CRC; [2]): significantly reduced | total number of tumors (AOM/DSS-induced CRC; [2]): significantly reduced | abundance of neutrophils in the colon (AOM/DSS-induced CRC; flow cytometry, n=2-3/group, statistics not performed): appeared to protect against the increased abundance | relative abundance of macrophages in colons following tumor removal (AOM/DSS-induced CRC; flow cytometry, increase with VEH vs CF, p≤0.05): ameliorated | F4/80 immunofluorescence staining in colonic tumors (AOM/DSS-induced CRC; pan macrophage marker, n=3/group): reduction in macrophages | CD68 gene expression (AOM/DSS-induced CRC; [3]): significantly suppressed | MSR-1 gene expression (AOM/DSS-induced CRC; [3]): significantly suppressed | mannose receptor C type 1 (Mrc1) gene expression (AOM/DSS-induced CRC; [3]): significantly suppressed | IL-1β gene expression (AOM/DSS-induced CRC; [4]): significant downregulation | IL-6 gene expression (AOM/DSS-induced CRC; [4]): significant downregulation | IL-10 gene expression (AOM/DSS-induced CRC; [4]): significantly downregulated | IL-13 gene expression (AOM/DSS-induced CRC; [4]): significantly downregulated | TGF-β1 gene expression (AOM/DSS-induced CRC; [4]): significantly downregulated | neutrophil marker Ly6g gene expression (AOM/DSS-induced CRC; [4]): significantly downregulated | Muc1 gene expression (AOM/DSS-induced CRC; proximal colon qRT-PCR, vs VEH, p=0.08): slightly but non-significantly reduced | Muc2 gene expression (AOM/DSS-induced CRC; [5]): significantly increased | occludin (OCLN) gene expression (AOM/DSS-induced CRC; [5]): upregulated | tight junction protein 3 (TJP3) gene expression (AOM/DSS-induced CRC; [5]): upregulated | gene expression of pro-apoptotic marker Bax in colonic tumors (AOM/DSS-induced CRC; qRT-PCR, vs VEH, p=0.09): increased, although non-significant | TGF-01 gene expression in tumors (AOM/DSS-induced CRC; removed tumors RT-PCR, vs VEH, p=0.08): suppressed | CD68 gene expression in tumors (AOM/DSS-induced CRC; [6]): significantly suppressed | IL-6 gene expression in tumors (AOM/DSS-induced CRC; [6]): suppressed | IL-13 gene expression in tumors (AOM/DSS-induced CRC; [6]): suppressed | small tumors (≤1 mm) (AOM/DSS-induced CRC; sexes combined, reduction observed, p=0.08): did not reach statistical significance | colonic TCRβ+FoxP3+ T-regs (AOM/DSS-induced CRC; tumor-removed colons, flow cytometry, between VEH and PA): no difference | percentage of Ki67 positive cells in colonic tumors (AOM/DSS-induced CRC; vs VEH, p≤0.05): significant decreased | percentage of apoptotic cells (TUNEL) in colonic tumors (AOM/DSS-induced CRC; vs VEH, p≤0.05): significant increase | overall symptom score (bodyweight loss, stool consistency, rectal bleeding) (AOM/DSS-induced CRC; weeks 1-3, 5-7 and 10-12, vs VEH, FIG. 1C): significantly suppressed | circulating lymphocytes (AOM/DSS-induced CRC; whole blood, end of study, PA vs VEH): no difference between VEH- and PA-treated groups | total WBCs (AOM/DSS-induced CRC; whole blood, end of study, across groups): no change | circulating monocytes (AOM/DSS-induced CRC; whole blood, end of study, increase with VEH vs CF, p≤0.05): rescued | neutrophil to lymphocyte ratio (NLR) (AOM/DSS-induced CRC; whole blood, end of study, p≤0.05): decrease | circulating neutrophils (AOM/DSS-induced CRC; whole blood, end of study, vs VEH, p≤0.05): ameliorate the significant increase | IC50 (C26 CRC cells): 1000 nM | goblet cell count per crypt ([1]; Alcian Blue, DSS+Veh -75% vs Control, p=0.0003): rescued | rectal bleeding ([1]; DAI, vs DSS+Veh): decreased | stool consistency ([1]; DAI, vs DSS+Veh): improved | average crypt width ([1]; H&E, DSS+Veh +124% vs Control, Pax vs Control p=0.641): not different from Control | reduction in inflammation (endoscopic score) ([1]; day 14, vs DSS+Veh, p=0.012): 63% | reduction in total endoscopic scores ([1]; day 14, vs DSS+Veh, p=0.014): 62% | reduction in total lesions (endoscopic score) ([1]; day 14, vs DSS+Veh, p=0.029): 58% | reduction in erosions (endoscopic score) ([1]; day 14, vs DSS+Veh, p=0.033): 55% | reduction in ulcers (endoscopic score) ([1]; day 14, vs DSS+Veh, p=0.047): 62% | widening and gaping of the crypts (SEM 3000×) ([1]; distal colon): partially rescued | edema in the intercellular space of IECs (TEM) ([1]; distal colon, edema seen only in DSS+Veh): no edema | mucus on mucosa (SEM 2000×) ([1]; distal colon, vs DSS+Veh): more areas of mucus formation, preservation, and abundance | body weight ([1]; end of study, not significant vs DSS+Veh 18.4±0.6, p=0.383): 19.1 ± 0.4 g | CD45+CD4+ helper T-cells in colonic LP ([1]; flow cytometry, between DSS-treated groups, p=0.446): no significant differences | M1 macrophages in colonic LP ([1]; flow cytometry, vs DSS+Veh, p=0.011): decreased | relative abundance of naïve (M0) macrophages in colonic LP ([1]; flow cytometry, vs DSS+Veh, p=0.019): increased | TCRβ+FoxP3+ T-regs in colonic LP ([1]; flow cytometry, vs DSS+Veh, p=0.027): significantly increased | M2 macrophages in colonic LP ([1]; flow cytometry, vs DSS+Veh, p=0.041): decreased | LiveCD45+ immune cells in colonic LP ([1]; flow cytometry, vs DSS+Veh, p=0.056, not statistically significant): trending increase | CD11b+CD68+ macrophages in colonic LP ([1]; flow cytometry, vs DSS+Veh, p=0.07, not statistically significant): decrease | transitional (M1/M2) macrophages in colonic LP ([1]; flow cytometry, within DSS-treated groups, p=0.085): no significant differences | crypt width distribution curve ([1]; rightward shift Control to DSS+Veh, FIG. 11C): significantly (p≤0.05) improved | DAI scores ([1]; throughout treatment, vs DSS+Veh): significantly (p≤0.05) improved
